Measured values published in publication PMC8998978, “Toward a Treatment of Cancer: Design and In Vitro/In Vivo Evaluation of Uncharged Pyrazoline Derivatives as a Series of Novel SHP2 Inhibitors” (International Journal of Molecular Sciences, 2022).

Experiments:
[1] = Subacute toxicity assay; format: in vivo
Experimental: In acute toxicity assay, 18 female Kunming mice (Jinan Pengyue Experimental Animal Breeding Co., Ltd., Jinan, China), 18–22 g of weight, were used. The mice were randomly divided into three groups (n = 6), and treated with vehicle (0.5% CMC-Na solution) or 4o (300, 2000 mg/kg) by gavage once. The body weight, toxicity effect, general behavior and mortality of mice were monitored within 14 days after 4o treatment. In subacute toxicity assay, 10 male and 10 female Kunming mice (Jinan Pengyue Experimental Animal Breeding Co., Ltd., Jinan, China), 18–22 g of weight, were used. The mice were randomly divided into two groups with 5 males and 5 females, and were orally treated with vehicle (0.5% CMC-Na solution) or 4o (1000 mg/kg) once a day for 28 days. […]. After 28 days of treatment, the mice were anaesthetized with isoflurane and killed by decapitation. The heart, liver, spleen and kidney tissues were collected, and histologically analyzed by H&E staining.

[2] = tested on: BEL-7402 cells; experiment: Cell viability assay (SRB); format: cell-based; details: Homo sapiens, BEL-7402, 72 h
From the text: (§1) Human colon cancer cell line HCT116, hepatoma cell lines HepG2 and BEL-7402, lung adenocarcinoma cell lines NCI-H1975 and 95-D, pancreatic cancer cell line Panc-1, breast cancer cell line MDA-MB-231, NSCLC cell line NCI-H1299, ovarian cancer cell line SK-OV-3, leukemia cell line K562, glioma cell line U87, colon epithelial cell line NCM460 and umbilical vein endothelial cell line HUVEC were purchased from the Institute of Biochemistry and Cell Biology, Chinese Academy of Sciences (Shanghai, China). HCT116 cell line was cultured in McCoy’s 5A medium (Hyclone, Logan, UT, USA). HepG2, 95-D, Panc-1, MDA-MB-231, BEL-7402, SK-OV-3, U87 and NCM460 cell lines were cultured in DMEM-High glucose medium (Hyclone, Logan, UT, USA). NCI-H1975, NCI-H1299 and HUVEC cell lines were cultured in RPMI 1640 medium (Hyclone, Logan, UT, USA). K562 cell line was cultured in IMDM medium (Hyclone, Logan, UT, USA). All of them were incubated in the medium with 10% fetal bovine serum (PAN, Adenbach, Bavaria, Germany) and 1% penicillin-streptomycin (Gibco-Invitrogen, Grand Island, NY, USA) under a humidified atmosphere of 5% CO2 at 37 °C.
(§2) The inhibition rate of cell viability was detected by 3-(4,5-dimethyl-2-thiazolyl)-2,5-diphenyl-2-H-tetrazolium bromide (MTT, Solarbio, Beijing, China) or Sulforhodamine B (SRB, Sigma-Aldrich, St. Louis, MO, USA) assay. In MTT assay, the suspension cells were inoculated in 96-well plates at the density of 5000 cells per well, and incubated with 4o at indicated concentrations dissolved in DMSO for 72 h. Each well was incubated with MTT solution (5 mg/mL) at 37 °C for 4 h, DMSO was added and incubated overnight at 37 °C. The absorbance at 570 nm was measured in a multimode reader (Berthold Technologies, Germany). In SRB assay, adherent cells were seeded in 96-well plates (5000 cells per well). After 24 h, the cells were treated with 4o for 72 h, and then fixed with precooling 10% TCA solution at 4 °C for 1 h. After washing and drying, SRB staining was added for 15 min, and then washed and dried by 1% acetic acid. Finally, Tris–HCl solution was added, and the absorbance at 515 nm was detected in a multimode reader (Berthold Technologies, Germany).

[3] = tested on: NCI-H1975 cells; experiment: Cell viability assay (SRB); format: cell-based; details: Homo sapiens, NCI-H1975, 72 h
From the text: as §1, §2

[4] = tested on: HepG2 cells; experiment: Cell viability assay (SRB); format: cell-based; details: Homo sapiens, HepG2, 72 h
From the text: as §1, §2

[5] = tested on: Panc-1 cells; experiment: Cell viability assay (SRB); format: cell-based; details: Homo sapiens, Panc-1, 72 h
From the text: as §1, §2

[6] = tested on: NCI-H1299 cells; experiment: Cell viability assay (SRB); format: cell-based; details: Homo sapiens, NCI-H1299, 72 h
From the text: as §1, §2

[7] = tested on: 95-D cells; experiment: Cell viability assay (SRB); format: cell-based; details: Homo sapiens, 72 h
From the text: as §1, §2

[8] = tested on: MDA-MB-231 cells; experiment: Cell viability assay (SRB); format: cell-based; details: Homo sapiens, MDA-MB-231, 72 h
From the text: as §1, §2

[9] = tested on: SK-OV-3 cells; experiment: Cell viability assay (SRB); format: cell-based; details: Homo sapiens, SK-OV-3, 72 h
From the text: as §1, §2

[10] = tested on: U87 cells; experiment: Cell viability assay (SRB); format: cell-based; details: Homo sapiens, U-87 MG, U87, 72 h
From the text: as §1, §2

In the case of `CCOc1ccc(Oc2ccc(C3=NN(C4=NC(=O)CS4)C(c4cc(O)c(O)c(Br)c4Br)C3)cc2)cc1` (stereo not shown) [Compound 4o, 2-(5-(2,3-dibromo-4,5-dihydroxyphenyl)-3-(4-(4-ethoxyphenoxy)phenyl)-4,5-dihydro-1H-pyrazol-1-yl)thiazol-4(5H)-one], the “Body Weight (g) Day 0” value ([1]; 1000 mg/kg orally once a day) is reported as 19.08 ± 0.95 g, the “Body Weight (g) Day 7” value ([1]; 1000 mg/kg orally once a day) is reported as 27.52 ± 1.77 g and the “Body Weight (g) Day 14” value ([1]; 1000 mg/kg orally once a day) is reported as 33.41 ± 3.49 g. The “Body Weight (g) Day 21” value ([1]; 1000 mg/kg orally once a day) was 35.49 ± 4.52 g, the “Body Weight (g) Day 28” value ([1]; 1000 mg/kg orally once a day) was 36.63 ± 4.84 g and the Mortality ([1]; 1000 mg/kg orally once a day, 28 days) was 0/10. The “H&E staining of heart, liver, spleen and kidney” value ([1]; 1000 mg/kg orally, 28 days) was “no significant change in the cell morphology”, the IC50 [2] was 7.38 ± 0.31 µM and the IC50 [3] was 5.29 ± 0.6 µM. For the same compound, the IC50 [4] was 3.8 ± 0.22 µM, the IC50 [5] was 6.3 ± 0.5 µM and the IC50 [6] was 7.42 ± 0.43 µM. It also gave an IC50 [7] of 5.42 ± 0.44 µM, an IC50 [8] of 6.34 ± 0.37 µM and an IC50 [9] of 8.44 ± 0.45 µM. For the same compound, the IC50 [10] was 10.2 ± 0.39 µM.
